For four compounds, speed of sound and mass density results are on record in the NIST ThermoML archive (doi:10.1016/j.tca.2010.09.004).

Numbers after ± are expanded uncertainties.

For the series the following is noted: 101.33 kPa, Liquid; for speed of sound: Sing-around technique in a fixed-path interferometer; for mass density: Vibrating tube method.

With `CCCNCCC` [dipropylamine], the speed of sound (in general, how fast a sound wave travels through the sample) by setting is: (293.15 K) 1209.2 ± 1.4 m/s; (298.15 K) 1187.7 ± 1.3 m/s; (303.15 K) 1167.1 ± 1.3 m/s. Besides, the mass density – broadly, the mass of a sample divided by its volume – is, setting by setting: (293.15 K) 738.188 ± 0.32 kg/m3; (298.15 K) 733.683 ± 0.32 kg/m3; (303.15 K) 729.087 ± 0.32 kg/m3.

In the case of `CCN(CC)CC` [triethylamine], the speed of sound came out at 1132.8 ± 1 m/s (293.15 K), 1111.1 ± 1 m/s (298.15 K) and 1090.7 ± 1 m/s (303.15 K). The mass density was found to be 727.515 ± 0.22 kg/m3 (293.15 K), 722.822 ± 0.22 kg/m3 (298.15 K) and 718.201 ± 0.22 kg/m3 (303.15 K).

With `CCC(C)=O` [butanone], the speed of sound reads like this: (293.15 K) 1212.3 ± 1 m/s; (298.15 K) 1191 ± 1 m/s; (303.15 K) 1170.8 ± 1 m/s. Moreover, the mass density runs as follows: (293.15 K) 805.351 ± 0.19 kg/m3; (298.15 K) 800.077 ± 0.19 kg/m3; (303.15 K) 794.779 ± 0.19 kg/m3.

Consider `CCCCNCCCC` [dibutylamine], for which the speed of sound (293.15 K) was 1261.2 ± 1 m/s, the speed of sound (298.15 K) came to 1241.3 ± 1 m/s and the speed of sound (303.15 K) is 1222.5 ± 1 m/s. Besides, the mass density (293.15 K) was 759.571 ± 0.2 kg/m3, the mass density (298.15 K) is reported as 755.457 ± 0.2 kg/m3 and the mass density (303.15 K) was 751.329 ± 0.21 kg/m3.
